The source of these data is PubChem BioAssay (NCI).

Some test systems named below: NCI-H23 lung; SW-620 colon; KM20L2 colon; DMS 114 small cell lung; SR leukemia; HOP-62 NSCLC; EKVX NSCLC; MOLT-4 leukemia; NCI-H522 lung; MDA-MB-435.
Holding throughout (assay): growth of human tumour cells (NCI), 48 h

Each structure is given as a SMILES string. Values joined by “and” are separate entries in the source; they are usually repeats but may differ in a detail not shown here. Equal entries are not always repeated.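 Briefly, cells in 96-well plates were exposed to five compound concentrations for 48 h, and endpoints were estimated by linear interpolation. GI50 is the concentration that inhibits growth by half. TGI is the concentration that stops growth completely.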 Bounds are passed on as bounds.

Turning to `CC1OC(n2cc(I)c(=O)[nH]c2=O)C=CC1=O` (stereo not given), the TGI with NCI-H23 lung is 30.7 µM; with SW-620 colon, 26.8 µM; in the experiment on KM20L2 colon, 31 µM; in the experiment with DMS 114 small cell lung, 31 µM; in the experiment with SR leukemia it was 32.2 µM; in the experiment with HOP-62 NSCLC, 32.7 µM. Also, the TGI with EKVX NSCLC worked out at 32.3 µM; in the experiment with MOLT-4 leukemia it was 33.8 µM.

`CC1=C2[C@@H](c3ccccc3)C3C=CC2(c2ccccc23)N(C(=O)Nc2cccc3ccccc23)C1=O` (stereo not given in full): the TGI in the experiment on NCI-H23 lung, in the experiment on SW-620 colon, in the experiment on KM20L2 colon, with DMS 114 small cell lung, in the experiment on SR leukemia and in the experiment on HOP-62 NSCLC was over 100 µM each time. Further, the TGI in the experiment with EKVX NSCLC and in the experiment with MOLT-4 leukemia was over 100 µM throughout.

Turning to `C[CH2][Sn]([Cl])([CH2]C)[CH2]C`, the GI50 in the experiment on NCI-H23 lung was 0.556 µM; in the experiment with SW-620 colon, 0.57 µM; in the experiment on KM20L2 colon, 0.524 µM; in the experiment on DMS 114 small cell lung, 0.968 µM; with NCI-H522 lung it was 0.705 µM; with SR leukemia it was 0.481 µM. Further, the GI50 is 1.04 µM with HOP-62 NSCLC, 1.06 µM with EKVX NSCLC and 0.369 µM in the experiment with MOLT-4 leukemia. Further, the TGI with NCI-H23 lung is 4.84 µM; with SW-620 colon it was 10.9 µM; with KM20L2 colon, 2.99 µM; in the experiment on DMS 114 small cell lung it was 4.7 µM; in the experiment with NCI-H522 lung, 3.15 µM; in the experiment on SR leukemia, 5.01 µM. For the same compound, the TGI is 4.14 µM with HOP-62 NSCLC, 11.6 µM in the experiment with EKVX NSCLC and 2.96 µM in the experiment with MOLT-4 leukemia.

Consider `O=[N+]([O-])c1cc([N+](=O)[O-])c(C(Cl)C(Cl)c2ccccc2)cc1C(Cl)C(Cl)c1ccccc1` (stereo not given), for which the TGI with NCI-H23 lung was 3.72 µM; in the experiment with SW-620 colon, 3.46 µM; in the experiment on KM20L2 colon, 4.22 µM; with DMS 114 small cell lung, 3.34 µM; with NCI-H522 lung, 3.39 µM; with SR leukemia, over 100 µM. For the same compound, the TGI in the experiment on HOP-62 NSCLC is 11.9 µM; in the experiment on EKVX NSCLC, 4.28 µM; in the experiment with MOLT-4 leukemia, over 23.3 µM.

Regarding `CO[C@]12CCC(=O)N1C=Cc1c2[nH]c2ccccc12`, the TGI in the experiment with NCI-H23 lung, with SW-620 colon, in the experiment with DMS 114 small cell lung, in the experiment with SR leukemia, in the experiment with HOP-62 NSCLC and in the experiment with EKVX NSCLC was over 100 µM in each case. The compound also registered a TGI in the experiment with MOLT-4 leukemia of over 100 µM.

Turning to `O=C(NCCCCCCNC(=O)NC1OCC(O)C(O)C1O)NC1OCC(O)C(O)C1O` (stereo not given), the TGI with NCI-H23 lung, in the experiment on SW-620 colon, in the experiment on DMS 114 small cell lung, in the experiment with NCI-H522 lung, with SR leukemia and in the experiment with HOP-62 NSCLC was over 100 µM throughout. Moreover, the TGI in the experiment with EKVX NSCLC and in the experiment on MOLT-4 leukemia was over 100 µM in each case.

Consider `CN1CCN(CCCN2c3ccccc3Sc3ccc(C(F)(F)F)cc32)CC1`, for which the GI50 in the experiment on NCI-H23 lung was 3.29 µM; with SW-620 colon it was 1.85 µM and 3.67 µM and 8.47 µM; in the experiment on NCI-H522 lung it was 1.87 µM and 4.05 µM and 13 µM; with SR leukemia, 2.72 µM and 2.09 µM and 8.62 µM; in the experiment with HOP-62 NSCLC, 1.73 µM; in the experiment with EKVX NSCLC, 2.34 µM. In addition, the GI50 was 2.35 µM with MOLT-4 leukemia and 1.69 µM in the experiment with MDA-MB-435. In addition, the TGI in the experiment with NCI-H23 lung is 14.1 µM and 26.7 µM and 27.7 µM; in the experiment with SW-620 colon, 4.44 µM and 18.1 µM and 21.4 µM; in the experiment with KM20L2 colon, 5.22 µM; in the experiment on DMS 114 small cell lung it was 23.4 µM; in the experiment with NCI-H522 lung it was 3.5 µM and 17.8 µM and 26.1 µM; in the experiment with SR leukemia, 7.95 µM and > 20.4 µM and 27.2 µM. Besides, the TGI is 3.94 µM and 24.9 µM and 26.5 µM in the experiment with HOP-62 NSCLC; 10.8 µM and 27.9 µM and 28.3 µM with EKVX NSCLC; 4.92 µM and 10.8 µM and 20.6 µM with MOLT-4 leukemia; 3.29 µM and 9.49 µM and 11.4 µM with MDA-MB-435.

For `C=C(CN(C)C)C(=O)c1ccc(OC)cc1`, the TGI in the experiment on NCI-H23 lung turned out to be 22.2 µM; with SW-620 colon, 5.08 µM; in the experiment on KM20L2 colon, 13.7 µM; in the experiment on DMS 114 small cell lung it was 8.38 µM; with SR leukemia, 5.27 µM; with HOP-62 NSCLC it was 51.9 µM. In addition, the figures for the TGI in the experiment on EKVX NSCLC, in the experiment on MOLT-4 leukemia and in the experiment on MDA-MB-435 were 44.8 µM, 2.06 µM and 26.4 µM, respectively.

`CN1CCc2cc(O)c3cc2C1Cc1ccc(cc1)Oc1cc(ccc1O)CC1c2c(cc4c(c2O3)OCO4)CCN1C` (stereo not given): the TGI with NCI-H23 lung was over 100 µM; in the experiment on KM20L2 colon, 45.9 µM; in the experiment with DMS 114 small cell lung, 39.4 µM; in the experiment with SR leukemia, over 100 µM; with EKVX NSCLC, 70.7 µM; in the experiment with MOLT-4 leukemia, 85.4 µM.

`CCOC(=O)NN(C(=O)OCC)C(C(=O)c1ccc(Cl)cc1)=C1NCCN1`: the TGI with NCI-H23 lung, with SW-620 colon, in the experiment on KM20L2 colon, with DMS 114 small cell lung, in the experiment with NCI-H522 lung and in the experiment on SR leukemia was over 100 µM throughout. Besides, the TGI with HOP-62 NSCLC, in the experiment with EKVX NSCLC and with MOLT-4 leukemia was over 100 µM each time.

Take `CCC[CH2][Ge]([CH2]CCC)([CH2]CCC)[O]C(=O)C(OC(C)=O)c1ccccc1` (stereo not given): the GI50 in the experiment with NCI-H23 lung was 0.0395 µM; in the experiment with SW-620 colon, 4.59 µM; with KM20L2 colon, 0.652 µM; in the experiment with NCI-H522 lung it was 0.304 µM; in the experiment on HOP-62 NSCLC, 2.18 µM; in the experiment with MOLT-4 leukemia, 0.153 µM. For the same compound, the TGI came out at 6.24 µM with NCI-H23 lung; 20.6 µM in the experiment on SW-620 colon; 15.2 µM in the experiment with KM20L2 colon; 8.88 µM in the experiment on NCI-H522 lung; 16.1 µM in the experiment on HOP-62 NSCLC; 9.37 µM in the experiment with EKVX NSCLC. This compound yielded a TGI in the experiment on MOLT-4 leukemia of over 100 µM.

For `C/C=C1\C[C@@H]2C(OC)Nc3cc(O)c(OC)cc3C(=O)N2C1` (stereo not given in full), the GI50 with NCI-H23 lung is 0.00262 µM; with SW-620 colon, 0.00703 µM; with NCI-H522 lung, 0.00119 µM; in the experiment on HOP-62 NSCLC, 0.00296 µM; with EKVX NSCLC it was 0.0176 µM; in the experiment on MOLT-4 leukemia, 0.00248 µM. The GI50 with MDA-MB-435 is 0.00819 µM. The TGI is 0.00892 µM in the experiment on NCI-H23 lung; 36.8 µM with SW-620 colon; 0.0909 µM and 0.045 µM in the experiment with KM20L2 colon; 0.0035 µM in the experiment with DMS 114 small cell lung; 0.00432 µM in the experiment on NCI-H522 lung; 0.0602 µM with SR leukemia. Also, the TGI in the experiment with HOP-62 NSCLC was 0.0155 µM and < 0.0566 µM; with EKVX NSCLC, 0.105 µM and 0.0346 µM; in the experiment with MOLT-4 leukemia, 0.225 µM; in the experiment with MDA-MB-435 it was 0.0623 µM and < 0.0106 µM.
